Source: patent publication US12662491B2 (Redona Therapeutics, Inc., priority 2020, dated 2026)

Target: T1, Zcchc11 enzyme (Homo sapiens, UniProt Q5TAX3)
T1 construct: made in house; host or cells: HEK293 cells (Zcchc11); E. coli Rosetta II (LIN28A)
T1 sequence (Q5TAX3 212-1420): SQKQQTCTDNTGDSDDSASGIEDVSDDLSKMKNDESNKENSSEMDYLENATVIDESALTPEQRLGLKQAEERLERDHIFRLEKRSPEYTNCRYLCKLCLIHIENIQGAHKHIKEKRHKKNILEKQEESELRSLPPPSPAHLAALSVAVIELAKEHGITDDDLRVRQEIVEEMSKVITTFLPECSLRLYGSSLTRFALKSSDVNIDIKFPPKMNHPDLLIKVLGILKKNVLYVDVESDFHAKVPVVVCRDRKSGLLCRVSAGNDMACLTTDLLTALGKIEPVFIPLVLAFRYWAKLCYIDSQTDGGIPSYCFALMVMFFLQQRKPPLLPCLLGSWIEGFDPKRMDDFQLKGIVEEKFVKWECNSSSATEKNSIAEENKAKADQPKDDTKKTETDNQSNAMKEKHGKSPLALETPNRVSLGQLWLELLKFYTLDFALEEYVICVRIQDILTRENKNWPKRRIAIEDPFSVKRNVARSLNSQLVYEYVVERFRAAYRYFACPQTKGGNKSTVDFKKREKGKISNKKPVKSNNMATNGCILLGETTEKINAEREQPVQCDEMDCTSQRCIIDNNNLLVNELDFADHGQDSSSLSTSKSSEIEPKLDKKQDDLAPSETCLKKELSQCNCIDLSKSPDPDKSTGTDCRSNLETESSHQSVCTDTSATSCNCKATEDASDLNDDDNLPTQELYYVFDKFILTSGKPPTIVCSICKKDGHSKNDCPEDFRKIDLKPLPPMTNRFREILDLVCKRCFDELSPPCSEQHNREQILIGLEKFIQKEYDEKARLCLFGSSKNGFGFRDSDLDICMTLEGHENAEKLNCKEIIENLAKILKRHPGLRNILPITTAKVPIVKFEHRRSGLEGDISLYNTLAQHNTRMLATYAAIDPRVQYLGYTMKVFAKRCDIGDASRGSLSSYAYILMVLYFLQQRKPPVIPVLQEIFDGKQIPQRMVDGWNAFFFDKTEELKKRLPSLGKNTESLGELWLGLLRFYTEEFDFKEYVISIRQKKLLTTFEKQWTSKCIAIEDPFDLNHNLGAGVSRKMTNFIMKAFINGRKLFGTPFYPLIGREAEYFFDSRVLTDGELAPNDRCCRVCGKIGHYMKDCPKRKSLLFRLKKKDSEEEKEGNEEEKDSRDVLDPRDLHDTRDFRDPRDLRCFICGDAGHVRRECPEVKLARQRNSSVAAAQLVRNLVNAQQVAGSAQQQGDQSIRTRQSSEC
Test: TUTase assay (Zcchc11 assay, Lin28a-dependent polyuridylation of pre-let-7)
Type: biochemical
Settings: Lin28a-dependent Zcchc11 (Z11) TUTase assay; read-out: Potency Lin28a-dep Z11 IC50
Outline: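 Polyuridylation measured as fluorescein loss when a rhodamine-labelled A20 probe anneals to U-tails added to fluorescein pre-let-7 (2 nM). Reaction: truncated Zcchc11 0.2 nM, E. coli-made LIN28A 10 nM, UTP 5 uM, HEPES pH 7.3, room temperature. Initial rates fitted to four-parameter IC50.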

IC50, 1000 to 10000 nM:
CN(C)C1CN(c2ccc(-n3cc(C(=O)O)c(=O)c4cc(F)c(N5CCC[C@H]5COc5ncccc5Cl)cc43)cn2)C1 [Example 670, (S)-7-(2-(((3-chloropyridin-2-yl)oxy)methyl)pyrrolidin-1-yl)-1-(6-(3-(dimethylamino)azetidin-1-yl)pyridin-3-yl)-6-fluoro-4-oxo-1,4-dihydroquinoline-3-carboxylic acid]

IC50, ≤ 1000 nM:
COc1cnc(OC[C@H]2CC3CC3N2c2cc3c(cc2Cl)c(=O)c(C(=O)O)cn3-c2ccnc(N)c2)c(Cl)c1 (stereo partly drawn) [Example 653, 1-(2-aminopyridin-4-yl)-6-chloro-7-((3R)-3-(((3-chloro-5-methoxypyridin-2-yl)oxy)methyl)-2-azabicyclo[3.1.0]hexan-2-yl)-4-oxo-1,4-dihydroquinoline-3-carboxylic acid]
COc1ccc(Cl)c(OC[C@H]2CC3CC3N2c2cc3c(cc2Cl)c(=O)c(C(=O)O)cn3-c2ccc(N3CC(N(C)C)C3)nc2)n1 (stereo partly drawn) [Example 654, 6-chloro-7-((3R)-3-(((3-chloro-6-methoxypyridin-2-yl)oxy)methyl)-2-azabicyclo[3.1.0]hexan-2-yl)-1-(6-(3-(dimethylamino)azetidin-1-yl)pyridin-3-yl)-4-oxo-1,4-dihydroquinoline-3-carboxylic acid]
CN(C)c1ccc(Cl)c(OC[C@H]2CCCN2c2cc3c(cc2Cl)c(=O)c(C(=O)O)cn3-c2ccnc(N)c2)n1 [Example 655, (R)-1-(2-aminopyridin-4-yl)-6-chloro-7-(2-(((3-chloro-6-(dimethylamino)pyridin-2-yl)oxy)methyl)pyrrolidin-1-yl)-4-oxo-1,4-dihydroquinoline-3-carboxylic acid]
COCCN(C)C1CN(c2ccc(-n3cc(C(=O)O)c(=O)c4cc(Cl)c(N5CCC[C@@H]5COc5nc(N(C)C)ccc5Cl)cc43)cn2)C1 [Example 657, (R)-6-chloro-7-(2-(((3-chloro-6-(dimethylamino)pyridin-2-yl)oxy)methyl)pyrrolidin-1-yl)-1-(6-(3-((2-methoxyethyl) (methyl)amino)azetidin-1-yl)pyridin-3-yl)-4-oxo-1,4-dihydroquinoline-3-carboxylic acid]
CN(C)C1CN(c2ccc(-n3cc(C(=O)O)c(=O)c4cc(Cl)c(N5CCC[C@@H]5COc5nc(OC(C)(C)C)ccc5Cl)cc43)cn2)C1 [Example 658, (R)-7-(2-(((6-(tert-butoxy)-3-chloropyridin-2-yl)oxy)methyl)pyrrolidin-1-yl)-6-chloro-1-(6-(3-(dimethylamino)azetidin-1-yl)pyridin-3-yl)-4-oxo-1,4-dihydroquinoline-3-carboxylic acid]
COc1ccc(Cl)c(OC[C@H]2CCCN2c2cc3c(cc2C(F)(F)F)c(=O)c(C(=O)O)cn3-c2ccc(N3CC(N(C)C)C3)nc2)n1 [Example 659, (R)-7-(2-(((3-chloro-6-methoxypyridin-2-yl)oxy)methyl)pyrrolidin-1-yl)-1-(6-(3-(dimethylamino)azetidin-1-yl)pyridin-3-yl)-4-oxo-6-(trifluoromethyl)-1,4-dihydroquinoline-3-carboxylic acid]
COc1ccc(Cl)c(OC[C@H]2C[C@H]3C[C@H]3N2c2cc3c(cc2Cl)c(=O)c(C(=O)O)cn3-c2ccc(N3CC(N(C)C)C3)nc2)n1 [Example 660, 6-chloro-7-((1R,3R,5R)-3-(((3-chloro-6-methoxypyridin-2-yl)oxy)methyl)-2-azabicyclo[3.1.0]hexan-2-yl)-1-(6-(3-(dimethylamino)azetidin-1-yl)pyridin-3-yl)-4-oxo-1,4-dihydroquinoline-3-carboxylic acid]
COc1ccc(Cl)c(OC[C@H]2C[C@@H]3C[C@@H]3N2c2cc3c(cc2Cl)c(=O)c(C(=O)O)cn3-c2ccc(N3CC(N(C)C)C3)nc2)n1 [Example 661, 6-chloro-7-((1S,3R,5S)-3-(((3-chloro-6-methoxypyridin-2-yl)oxy)methyl)-2-azabicyclo[3.1.0]hexan-2-yl)-1-(6-(3-(dimethylamino)azetidin-1-yl)pyridin-3-yl)-4-oxo-1,4-dihydroquinoline-3-carboxylic acid]
COc1cnc(OC[C@H]2C[C@H]3C[C@H]3N2c2cc3c(cc2Cl)c(=O)c(C(=O)O)cn3-c2ccc(N3CC(N(C)C)C3)nc2)c(Cl)c1 [Example 662, 6-chloro-7-((1R,3R,5R)-3-(((3-chloro-5-methoxypyridin-2-yl)oxy)methyl)-2-azabicyclo[3.1.0]hexan-2-yl)-1-(6-(3-(dimethylamino)azetidin-1-yl)pyridin-3-yl)-4-oxo-1,4-dihydroquinoline-3-carboxylic acid]
COc1ccc(Cl)c(OC[C@H]2CC3(CC3)CN2c2cc3c(cc2Cl)c(=O)c(C(=O)O)cn3-c2ccc(N3CC(N(C)C)C3)nc2)n1 [Example 663, (R)-6-chloro-7-(6-(((3-chloro-6-methoxypyridin-2-yl)oxy)methyl)-5-azaspiro[2.4]heptan-5-yl)-1-(6-(3-(dimethylamino)azetidin-1-yl)pyridin-3-yl)-4-oxo-1,4-dihydroquinoline-3-carboxylic acid]
CN(C)C1CN(c2ccc(-n3cc(C(=O)O)c(=O)c4cc(Cl)c(N5CC[C@@H](F)[C@@H]5COc5ncccc5Cl)cc43)cn2)C1 [Example 664, 6-chloro-7-((2S,3R)-2-(((3-chloropyridin-2-yl)oxy)methyl)-3-fluoropyrrolidin-1-yl)-1-(6-(3-(dimethylamino)azetidin-1-yl)pyridin-3-yl)-4-oxo-1,4-dihydroquinoline-3-carboxylic acid]
CN(C)c1ccc(Cl)c(OC[C@H]2CC3CC3N2c2cc3c(cc2Cl)c(=O)c(C(=O)O)cn3-c2ccc(N3CC(N(C)C)C3)nc2)n1 (stereo partly drawn) [Example 665, 6-chloro-7-((3R)-3-(((3-chloro-6-(dimethylamino)pyridin-2-yl)oxy)methyl)-2-azabicyclo[3.1.0]hexan-2-yl)-1-(6-(3-(dimethylamino)azetidin-1-yl)pyridin-3-yl)-4-oxo-1,4-dihydroquinoline-3-carboxylic acid]
CN(C)C1CN(c2ccc(-n3cc(C(=O)O)c(=O)c4cc(Cl)c(N5CCC[C@H]5COc5ncccc5Cl)cc43)cn2)C1 [Example 666, (S)-6-chloro-7-(2-(((3-chloropyridin-2-yl)oxy)methyl)pyrrolidin-1-yl)-1-(6-(3-(dimethylamino)azetidin-1-yl)pyridin-3-yl)-4-oxo-1,4-dihydroquinoline-3-carboxylic acid]
CN(C)C1CN(c2ccc(-n3cc(C(=O)O)c(=O)c4cc(Cl)c(N5CC[C@H](O)[C@@H]5COc5ncccc5Cl)cc43)cn2)C1 [Example 667, 6-chloro-7-((2S,3S)-2-(((3-chloropyridin-2-yl)oxy)methyl)-3-hydroxypyrrolidin-1-yl)-1-(6-(3-(dimethylamino)azetidin-1-yl)pyridin-3-yl)-4-oxo-1,4-dihydroquinoline-3-carboxylic acid]
COc1ccnc(OC[C@@H]2CCCN2c2cc3c(cc2Cl)c(=O)c(C(=O)O)cn3-c2ccc(N3CC(N(C)C)C3)nc2)c1Cl [Example 668, (S)-6-chloro-7-(2-(((3-chloro-4-methoxypyridin-2-yl)oxy)methyl)pyrrolidin-1-yl)-1-(6-(3-(dimethylamino)azetidin-1-yl)pyridin-3-yl)-4-oxo-1,4-dihydroquinoline-3-carboxylic acid]
CO[C@H]1CCN(c2cc3c(cc2Cl)c(=O)c(C(=O)O)cn3-c2ccc(N3CC(N(C)C)C3)nc2)[C@H]1COc1ncccc1Cl [Example 669, 6-chloro-7-((2S,3S)-2-(((3-chloropyridin-2-yl)oxy)methyl)-3-methoxypyrrolidin-1-yl)-1-(6-(3-(dimethylamino)azetidin-1-yl)pyridin-3-yl)-4-oxo-1,4-dihydroquinoline-3-carboxylic acid]
